Experimental data taken from ChEMBL document CHEMBL1201862, “PubChem BioAssay data set” (2004).
Calls of active or inactive are those of the source.

How the values were obtained:
[1] = P. falciparum Dd2 growth inhibitors, dose response, SYBR Green, dry powder samples, set 9 (AID 1159568); type: functional, cell-based
[2] = Late stage results for the probe development effort to identify inhibitors of Plasmodium falciparum gametocytes: Luminescence-based cell-based high throughput dose response assay to identify inhibitors of viability of late stage Plasmodium falciparum gametocytes.; type: functional
[3] = C. neoformans growth inhibition with sorbitol, dose response, mechanism study for C. neoformans lysis project, alamar blue, dry powder, set 3 (AID 743304); type: functional, organism-based
[4] = HEK293T cell cytotoxicity, dose response, cytotoxicity control, plate reader, dry powder, set 10 (AID 743315); type: functional, cell-based; details: HEK293
[5] = P. falciparum Dd2 blood-stage growth inhibition, dose response, SYBR Green fluorescence, erythrocytes, dry powder, set 2 (AID 1159574); type: functional, cell-based
[6] = TRPM1 promoter luciferase reporter signal decrease, dose response, MITF inhibitor project, cell-based, SK-MEL-5, dry powder, set 8 (AID 624430); type: functional
[7] = MITF Orthogonal Assay: SK-MEL-5 CTG Assay Measured in Cell-Based System Using Plate Reader - 2084-02_Inhibitor_Dose_DryPowder_Activity_Set7.; type: functional
[8] = MALME3 melanoma cell viability reduction, dose response, orthogonal assay for MITF inhibitor project, CellTiter-Glo luminescence, dry powder, set 5 (AID 651584); type: functional, cell-based; details: MALME-3
[9] = MITF Orthogonal Assay: MALME3 CTG Assay Measured in Cell-Based System Using Plate Reader - 2084-04_Inhibitor_Dose_DryPowder_Activity_Set6.; type: functional; details: MALME-3
[10] = TRPM1 promoter luciferase reporter signal decrease, dose response, MITF inhibitor project, cell-based, SK-MEL-5, dry powder, set 9 (AID 651588); type: functional
[11] = SK-MEL-5 parental cell viability reduction, dose response, orthogonal assay for MITF inhibitor project, CellTiter-Glo luminescence, dry powder, set 8 (AID 651586); type: functional, cell-based
[12] = A375 melanoma cell viability loss, dose response, counter-screen for MITF modulator project, CellTiter-Glo luminescence, dry powder, set 9 (AID 651591); type: functional, cell-based; details: A-375
[13] = cytotoxicity in primary human melanocytes, dose response, cytotoxicity control, cell-based, plate reader, dry powder (AID 651920); type: functional
[14] = MITF: Counter assay: A375 proliferation Measured in Cell-Based System Using Plate Reader - 2084-03_Inhibitor_Dose_DryPowder_Activity_Set8.; type: functional; details: A-375
[15] = cytotoxicity toward HCT116 cells – cell-based, CellTiter-Glo luminescence, IC50, dose response (AID 1117332); type: functional; details: HCT-116
[16] = RKO cell viability reduction, dose response, CellTiter-Glo luminescence (AID 1117322); type: functional
[17] = Concentration-dependent survival of SW480 colon cancer line, luminescence detection with CellTiter-Glo, half-maximal inhibitory concentration (AID 1117338); type: functional
[18] = SNU-C1 cell viability reduction, dose response, CellTiter-Glo luminescence (AID 1117323); type: functional, cell-based
[19] = cytotoxicity toward HT-29 cells – cell-based, CellTiter-Glo luminescence, IC50, dose response (AID 1117330); type: functional
[20] = CellTiter-Glo luminescent dose response of DLD-1 viability loss (AID 1117352); type: functional

**Q.** For `CCCNC(=O)N1[C@H](C#N)[C@@H](c2ccccc2-c2cccc(C)c2)[C@@H]1CO`, which AC50 [1] is on record?
**A.** 10.2 µM (active)

**Q.** For `O=C(Nc1nncs1)c1cc(-c2ccccc2)nn1-c1ccccc1`, which IC50 [2] is on record?
**A.** > 37.2 µM (inactive)

**Q.** Which AC50 [3] does the source give for `CSc1nc2ccccc2n1CCOc1cc(C)ccc1C(C)C` here?
**A.** 41.6 µM (active)

**Q.** And the AC50 [4]?
**A.** > 52 µM (inactive)

**Q.** For `COc1ccc(NC(=O)N2CCCCN3[C@H](CO)[C@@H](c4ccc(C#Cc5ccccc5)cc4)[C@H]3C2)cc1`, which AC50 [5] is on record?
**A.** 4.04 µM (active)

**Q.** With `COc1ccc(NC2=C(N3CCCCC3)C(=O)c3ccccc3C2=O)cc1` as the compound, how does the AC50 [6] read?
**A.** 2.48 µM (active)

**Q.** What about the AC50 [7] of the same compound?
**A.** 3.73 µM (active)

**Q.** What about the AC50 [8] of the same compound?
**A.** 11.2 µM (active)

**Q.** And the AC50 [9]?
**A.** 11.2 µM (active)

**Q.** And the AC50 [10]?
**A.** 12 µM (active)

**Q.** What about the AC50 [11] of the same compound?
**A.** 26.8 µM (active)

**Q.** What about the AC50 [12] of the same compound?
**A.** 42.4 µM (active)

**Q.** And the AC50 [13]?
**A.** 40.9 µM (active)

**Q.** And the AC50 [14]?
**A.** > 70 µM (inactive)

**Q.** Which IC50 [15] does the source give for `[N-]=[N+]=CC(=O)OC[C@H](N)C(=O)O` [AZASERINE] here?
**A.** > 20 µM (inactive)

**Q.** What about the IC50 [16] of the same compound?
**A.** > 20 µM (inactive)

**Q.** And the IC50 [17]?
**A.** > 20 µM (inactive)

**Q.** And the IC50 [18]?
**A.** > 20 µM (inactive)

**Q.** What about the IC50 [19] of the same compound?
**A.** > 20 µM (inactive)

**Q.** And the IC50 [20]?
**A.** > 20 µM (inactive)
